Assay results reported in US9302999B2, “Substituted triazoles as herbicides” (E. I. DU PONT DE NEMOURS AND COMPANY, priority 2012, dated 2016).

Experiments:
Type in all cases: in vivo
[1] = system: barnyardgrass (Echinochloa crus-galli); assay: Test A pre-/postemergence: barnyardgrass
Method in brief: (§1)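 Soil medium was loam blended with sand; treatments pre- and postemergence were applied concurrently, postemergence at one- to two-leaf stage. Approximately ten days in greenhouse preceded visual comparison with untreated controls, scored 0 (no effect) to 100 (complete control).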

[2] = system: morningglory (Ipomoea spp.); assay: Test A pre-/postemergence: morningglory
Method in brief: as §1

[3] = system: pigweed (Amaranthus retroflexus); assay: Test A pre-/postemergence: pigweed
Method in brief: as §1

[4] = system: velvetleaf (Abutilon theophrasti); assay: Test A pre-/postemergence: velvetleaf
Method in brief: as §1

[5] = system: wheat (Triticum aestivum); assay: Test A pre-/postemergence: wheat
Method in brief: as §1

[6] = system: blackgrass (Alopecurus myosuroides); assay: Test C pre-/postemergence: blackgrass
Method in brief: (§2)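 Preemergence on seeds in loam/sand, postemergence on 2–18 cm (1–4-leaf) plants in peat-based medium; compounds in non-phytotoxic solvent with surfactant. After 13–15 days in greenhouse, visual rating versus controls, 0 (no effect) to 100 (complete control).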

[7] = system: ryegrass, Italian (Italian ryegrass, Lolium multiflorum); assay: Test C pre-/postemergence: ryegrass, Italian
From the text: (§3) Seeds of plant species selected from blackgrass (Alopecurus myosuroides), bromegrass, downy (downy bromegrass, Bromus tectorum), foxtail, green (green foxtail, Setaria viridis), ryegrass, Italian (Italian ryegrass, Lolium multiflorum), winter wheat (Triticum aestivum), wild oat (Avena fatua), galium (catchweed bedstraw, Galium aparine), bermudagrass (Cynodon dactylon), surinam grass (Brachiaria decumbens), cocklebur (common cocklebur, Xanthium strumarium), corn (Zea mays), large crabgrass (Digitaria sanguinalis), woolly cupgrass (Eriochloa villosa), foxtail, giant (giant foxtail, Setaria faberii), goosegrass (Eleusine indica), johnsongrass (Sorghum halepense), kochia (Kochia scoparia), lambsquarters (Chenopodium album), morningglory (Ipomoea coccinea), nightshade (eastern black nightshade, Solanum ptycanthum), nutsedge, yellow (yellow nutsedge, Cyperus esculentus), pigweed (Amaranthus retroflexus), ragweed (common ragweed, Ambrosia elation), soybean (Glycine max), common (oilseed) sunflower (Helianthus annuus), Russian thistle (Salsola kali) and velvetleaf (Abutilon theophrasti) were planted into a blend of loam soil and sand and treated preemergence with test chemicals formulated in a non-phytotoxic solvent mixture which included a surfactant.
(§4) At the same time, plants selected from these crop and weed species and also barley (winter barley, Hordeum vulgare), canarygrass (Phalaris minor), chickweed (common chickweed, Stellaria media) windgrass (Apera spica-venti) and deadnettle (henbit deadnettle, Lamium amplexicaule) were planted in pots containing Redi-Earth® planting medium (Scotts Company, 14111 Scottslawn Road, Marysville, Ohio 43041) comprising spaghnum peat moss, vermiculite, wetting agent and starter nutrients and treated with postemergence applications of test chemicals formulated in the same manner. Plants ranged in height from 2 to 18 cm (1- to 4-leaf stage) for postemergence treatments.
(§5) Treated plants and controls were maintained in a greenhouse for 13 to 15 days, after which time all species were compared to controls and visually evaluated. Plant response ratings, summarized in Table C, are based on a scale of 0 to 100 where 0 is no effect and 100 is complete control. A dash (-) response means no test result.

corn (Zea mays) = assay: Test C pre-/postemergence: corn
From the text: as §3, §4, §5

[8] = system: lambsquarters (Chenopodium album); assay: Test C pre-/postemergence: lambsquarters
Method in brief: as §2

[9] = system: morningglory (Ipomoea coccinea); assay: Test C pre-/postemergence: morningglory
Method in brief: as §2

[10] = system: nutsedge, yellow (yellow nutsedge, Cyperus esculentus); assay: Test C pre-/postemergence: nutsedge, yellow
From the text: as §3, §4, §5

[11] = system: chickweed (common chickweed, Stellaria media); assay: Test C postemergence: chickweed
From the text: as §4, §5

[12] = Postemergence, 125 g ai/ha, 0 to 100 scale, 0 is no effect, 100 is complete control
[13] = Postemergence, 500 g ai/ha, visual rating on 0 to 100 scale (0 no effect, 100 complete control), approximately ten days
[14] = Preemergence, 125 g ai/ha, 0 to 100 scale where 0 is no effect and 100 is complete control
[15] = Preemergence, 500 g ai/ha, 0 to 100 scale (0 no effect, 100 complete control)
[16] = Postemergence, 31 g ai/ha, scale 0 to 100 (0 no effect, 100 complete control)
[17] = Postemergence, 62 g ai/ha, scale 0 to 100 (0 no effect, 100 complete control)
[18] = Postemergence, 125 g ai/ha, scale 0 to 100, 0 no effect, 100 complete control
[19] = Postemergence, 250 g ai/ha, scale 0 to 100
[20] = Preemergence, 31 g ai/ha, scale of 0 to 100, 0 is no effect, 100 is complete control
[21] = Preemergence, 62 g ai/ha, scale of 0 to 100, 0 is no effect, 100 is complete control
[22] = Preemergence, 125 g ai/ha, scale 0 to 100, 0 no effect, 100 complete control
[23] = Preemergence, 250 g ai/ha, scale 0 to 100, 0 no effect, 100 complete control
[24] = 31 g ai/ha, scale 0 to 100 (0 no effect, 100 complete control)
[25] = 62 g ai/ha, scale 0 to 100 (0 no effect, 100 complete control)
[26] = 125 g ai/ha, scale 0 to 100, 0 no effect, 100 complete control
[27] = Postemergence, 500 g ai/ha, 0 to 100 scale, 0 is no effect, 100 is complete control
[28] = Preemergence, 31 g ai/ha, scale 0 (no effect) to 100 (complete control)
[29] = Postemergence, 250 g ai/ha, scale 0 to 100 (0 no effect, 100 complete control)

Cc1nn(-c2ccc(C(F)(F)F)c(F)c2)nc1Cc1ccnc(C(F)(F)F)c1 [Compound 162]
Plant response rating, Barnyardgrass [1, 12]: 80
Barnyardgrass plant response rating [1, 13]: 90
Plant response rating, Barnyardgrass [1, 14]: 90
Plant response rating, Barnyardgrass [1, 15]: 100
Plant response rating, Morningglory [2, 12]: 90
Morningglory plant response rating [2, 13]: 90
Plant response rating, Morningglory [2, 14]: 30
Plant response rating, Morningglory [2, 15]: 90
Plant response rating, Pigweed [3, 12]: 100
Pigweed plant response rating [3, 13]: 100
Plant response rating, Pigweed [3, 14]: 100
Plant response rating, Pigweed [3, 15]: 100
Plant response rating, Velvetleaf [4, 12]: 90
Velvetleaf plant response rating [4, 13]: 100
Plant response rating, Velvetleaf [4, 14]: 100
Plant response rating, Velvetleaf [4, 15]: 100
Plant response rating, Wheat [5, 12]: 20
Wheat plant response rating [5, 13]: 30
Plant response rating, Wheat [5, 14]: 10
Plant response rating, Wheat [5, 15]: 30
Plant response rating, Blackgrass [6, 16]: 45
Plant response rating, Blackgrass [6, 17]: 80
Plant response rating, Blackgrass [6, 18]: 85
Plant response rating, Blackgrass [6, 19]: 90
Plant response rating, Blackgrass [6, 20]: 60
Plant response rating, Blackgrass [6, 21]: 90
Plant response rating, Blackgrass [6, 22]: 90
Plant response rating, Blackgrass [6, 23]: 95
Plant response rating, Ryegrass, Italian [7, 16]: 30
Plant response rating, Ryegrass, Italian [7, 17]: 35
Plant response rating, Ryegrass, Italian [7, 18]: 60
Plant response rating, Ryegrass, Italian [7, 19]: 80
Plant response rating, Ryegrass, Italian [7, 20]: 60
Plant response rating, Ryegrass, Italian [7, 21]: 80
Plant response rating, Ryegrass, Italian [7, 22]: 90
Plant response rating, Ryegrass, Italian [7, 23]: 95
Plant response rating, Corn (corn (Zea mays); [16]): 15
Plant response rating, Corn (corn (Zea mays); [17]): 30
Plant response rating, Corn (corn (Zea mays); [18]): 30
Plant response rating, Corn (corn (Zea mays); [19]): 40
Plant response rating, Corn (corn (Zea mays); [20]): 5
Plant response rating, Corn (corn (Zea mays); [21]): 20
Plant response rating, Corn (corn (Zea mays); [22]): 20
Plant response rating, Corn (corn (Zea mays); [23]): 35
Plant response rating, Lambsquarters [8, 16]: 95
Plant response rating, Lambsquarters [8, 17]: 95
Plant response rating, Lambsquarters [8, 18]: 98
Plant response rating, Lambsquarters [8, 19]: 98
Plant response rating, Morningglory [9, 20]: 55
Plant response rating, Morningglory [9, 21]: 60
Plant response rating, Morningglory [9, 22]: 80
Plant response rating, Morningglory [9, 23]: 85
Plant response rating, Nutsedge, Yellow [10, 16]: 5
Plant response rating, Nutsedge, Yellow [10, 17]: 5
Plant response rating, Nutsedge, Yellow [10, 18]: 5
Plant response rating, Nutsedge, Yellow [10, 19]: 10
Plant response rating, Nutsedge, Yellow [10, 20]: 0
Plant response rating, Nutsedge, Yellow [10, 21]: 0
Plant response rating, Nutsedge, Yellow [10, 22]: 5
Plant response rating, Nutsedge, Yellow [10, 23]: 5
Plant response rating, Chickweed [11, 24]: 100
Plant response rating, Chickweed [11, 25]: 100
Plant response rating, Chickweed [11, 26]: 100
Plant response rating, Chickweed ([11]; 250 g ai/ha, scale 0 to 100): 100

CCCc1nn(-c2ccc(C(F)(F)F)c(F)c2)nc1Oc1ccnc(C(F)(F)F)c1 [Compound 185]
Plant response rating, Barnyardgrass [1, 12]: 70
Barnyardgrass plant response rating [1, 27]: 90
Plant response rating, Barnyardgrass [1, 14]: 100
Plant response rating, Barnyardgrass [1, 15]: 100
Plant response rating, Morningglory [2, 12]: 100
Morningglory plant response rating [2, 27]: 100
Plant response rating, Morningglory [2, 14]: 60
Plant response rating, Morningglory [2, 15]: 100
Plant response rating, Pigweed [3, 12]: 100
Pigweed plant response rating [3, 27]: 100
Plant response rating, Pigweed [3, 14]: 100
Plant response rating, Pigweed [3, 15]: 100
Plant response rating, Velvetleaf [4, 12]: 100
Velvetleaf plant response rating [4, 27]: 100
Plant response rating, Velvetleaf [4, 14]: 90
Plant response rating, Velvetleaf [4, 15]: 100
Plant response rating, Wheat [5, 12]: 20
Wheat plant response rating [5, 27]: 40
Plant response rating, Wheat [5, 14]: 30
Plant response rating, Wheat [5, 15]: 50
Plant response rating, Blackgrass [6, 16]: 20
Plant response rating, Blackgrass [6, 17]: 40
Plant response rating, Blackgrass [6, 18]: 50
Plant response rating, Blackgrass [6, 19]: 50
Plant response rating, Blackgrass [6, 28]: 90
Plant response rating, Blackgrass [6, 21]: 95
Plant response rating, Blackgrass [6, 22]: 95
Plant response rating, Blackgrass [6, 23]: 98
Plant response rating, Ryegrass, Italian [7, 16]: 10
Plant response rating, Ryegrass, Italian [7, 17]: 10
Plant response rating, Ryegrass, Italian [7, 18]: 25
Plant response rating, Ryegrass, Italian [7, 29]: 35
Plant response rating, Ryegrass, Italian [7, 28]: 90
Plant response rating, Ryegrass, Italian [7, 21]: 100
Plant response rating, Ryegrass, Italian [7, 22]: 100
Plant response rating, Ryegrass, Italian [7, 23]: 100
Plant response rating, Corn (corn (Zea mays); [16]): 15
Plant response rating, Corn (corn (Zea mays); [17]): 20
Plant response rating, Corn (corn (Zea mays); [18]): 25
Plant response rating, Corn (corn (Zea mays); [19]): 25
Plant response rating, Corn (corn (Zea mays); [28]): 5
Plant response rating, Corn (corn (Zea mays); [21]): 5
Plant response rating, Corn (corn (Zea mays); [22]): 35
Plant response rating, Corn (corn (Zea mays); [23]): 35
Plant response rating, Lambsquarters [8, 16]: 80
Plant response rating, Lambsquarters [8, 17]: 80
Plant response rating, Lambsquarters [8, 18]: 85
Plant response rating, Lambsquarters [8, 29]: 95
Plant response rating, Lambsquarters [8, 28]: 100
Plant response rating, Lambsquarters [8, 21]: 100
Plant response rating, Lambsquarters [8, 22]: 100
Plant response rating, Lambsquarters [8, 23]: 100
Plant response rating, Morningglory [9, 16]: 90
Plant response rating, Morningglory [9, 17]: 98
Plant response rating, Morningglory [9, 18]: 100
Plant response rating, Morningglory [9, 29]: 100
Plant response rating, Morningglory [9, 28]: 45
Plant response rating, Morningglory [9, 21]: 55
Plant response rating, Morningglory [9, 22]: 70
Plant response rating, Morningglory [9, 23]: 100
Plant response rating, Nutsedge, Yellow [10, 16]: 10
Plant response rating, Nutsedge, Yellow [10, 17]: 10
Plant response rating, Nutsedge, Yellow [10, 18]: 10
Plant response rating, Nutsedge, Yellow [10, 29]: 15
Plant response rating, Nutsedge, Yellow [10, 28]: 0
Plant response rating, Nutsedge, Yellow [10, 21]: 0
Plant response rating, Nutsedge, Yellow [10, 22]: 0
Plant response rating, Nutsedge, Yellow [10, 23]: 5
Plant response rating, Chickweed [11, 24]: 70
Plant response rating, Chickweed [11, 25]: 85
Plant response rating, Chickweed [11, 26]: 95
Plant response rating, Chickweed ([11]; 250 g ai/ha, scale 0 to 100): 95
